Where a chain is given by its changes, count along the chain named. Where no end group is shown, it is not given here.
Experiments:
Type in all cases: binding
huUHRF1-PHD296–367 D334A = biological target: T1, huUHRF1-PHD296–367 D334A (Homo sapiens, UniProt Q96T88, D334A); experiment: ITC, D334A mutant; conditions: 20°C, 20 mM Tris pH 7, 150 mM NaCl, 0.5 mM TCEP, 25 µM ZnCl2, at least in duplicates
T1 construct: Characterization of key residues for the recognition of the histone H3 tail by huUHRF1-PHD296–367; (His)6-GST (N, cleaved yes); made in house; host or cells: Escherichia coli Rosetta 2
T1 sequence (Q96T88 296-367 D334A): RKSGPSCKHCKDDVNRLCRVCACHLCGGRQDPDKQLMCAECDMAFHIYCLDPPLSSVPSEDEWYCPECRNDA
Procedure: (§1) Measurements were carried out at 20°C on an ITC200 Microcal calorimeter (MicroCal). Histone peptides (1–12Y, 1.5–2 mM) were injected to a sample of either wild-type or mutant huUHRF1-PHD (0.12–0.18 mM) in a reaction buffer containing 20 mM Tris pH 7, 150 mM NaCl, 0.5 mM TCEP, 25 µM ZnCl2 and 0.1 mM PMSF. A typical titration consisted of 19 injections of 2 µl of peptide into 203 µl of the protein solution at time intervals of 150–300 s. Control experiments were performed under identical conditions to determine the dilution heat of the titrant peptide into buffer. Data were analyzed using the software ORIGIN 5.0 (OriginLab Corporation) and all the measurements were performed, at least, in duplicates.

huUHRF1-PHD296–367 D337A = biological target: T2, huUHRF1-PHD296–367 D337A (Homo sapiens, UniProt Q96T88, D337A); experiment: ITC, D337A mutant; conditions: 20°C, 20 mM Tris pH 7, 150 mM NaCl, 0.5 mM TCEP, 25 µM ZnCl2, at least in duplicates
T2 construct: Characterization of key residues for the recognition of the histone H3 tail by huUHRF1-PHD296–367; (His)6-GST (N, cleaved yes); made in house; host or cells: Escherichia coli Rosetta 2
T2 sequence (Q96T88 296-367 D337A): T1 sequence (Q96T88 296-367 D334A) with A39D, D42A
Procedure: as §1

huUHRF1-PHD296–367 = biological target: T3, huUHRF1-PHD296–367 (Homo sapiens, UniProt Q96T88); experiment: ITC, wild-type huUHRF1-PHD296–367 with histone H3 peptides; conditions: 20°C, 20 mM Tris pH 7, 150 mM NaCl, 0.5 mM TCEP, 25 µM ZnCl2, 0.1 mM PMSF, peptide 1.5–2 mM into protein 0.12–0.18 mM, at least in duplicates
T3 construct: (His)6-GST (N, cleaved yes); made in house; host or cells: Escherichia coli Rosetta 2
T3 sequence (Q96T88 296-367): T1 sequence (Q96T88 296-367 D334A) with A39D
Procedure: as §1, with “Histone peptides (1–12Y, 1.5–2 mM) were injected to a sample of either wild-type or mutant huUHRF1-PHD (0.12–0.18 mM) in a reaction buffer containing 20 mM Tris pH 7, 150 mM NaCl, 0.5 mM TCEP, 25 µM ZnCl2 and 0.1 mM PMSF.” left out

| Kd (huUHRF1-PHD296–367 D334A) [µM] | Kd (huUHRF1-PHD296–367 D337A) [µM] | Kd (huUHRF1-PHD296–367) [µM] | Molecule |
| --- | --- | --- | --- |
| > 500 | 68 ± 8 |  | C[C@H](N)C(=O)N[C@@H](CCCNC(=N)N)C(=O)N[C@H](C(=O)N[C@@H](CCCCN)C(=O)N[C@@H](CCC(N)=O)C(=O)N[C@H](C(=O)N[C@@H](C)C(=O)N[C@@H](CCCNC(=N)N)C(=O)N[C@@H](CCCCN)C(=O)N[C@@H](CO)C(=O)N[C@H](C(=O)NCC(=O)N[C@@H](Cc1ccc(O)cc1)C(=O)O)[C@@H](C)O)[C@@H](C)O)[C@@H](C)O [H3 (1-12Y)] |
|  |  | 7.9 | C[C@H](N)C(=O)N[C@@H](CCCNC(=N)N)C(=O)N[C@H](C(=O)N[C@@H](CCCCN)C(=O)N[C@@H](CCC(N)=O)C(=O)N[C@H](C(=O)N[C@@H](C)C(=O)N[C@@H](CCCNC(=N)N)C(=O)N[C@@H](CCCCN)C(=O)N[C@@H](CO)C(=O)N[C@H](C(=O)NCC(=O)N[C@@H](Cc1ccc(O)cc1)C(=O)O)[C@@H](C)O)[C@@H](C)O)[C@@H](C)O [unmodified H3] |
|  |  | 16.6 ± 0.9 | ARTAQTARKSTGY [H3K4A (1-12Y)] |

Source: PMC3214078 (PLoS ONE, 2011)
